Earlier results in paper PMC10410440, “Preclinical PK investigation of a novel IDO1/TDO dual inhibitor—SHR9146 in mouse plasma and tissues by LC-MS/MS” (Frontiers in Oncology, 2023).

Parameters: method as in PMID 31221619
Settings: phase III trial; epacadostat combined with a PD-1 checkpoint inhibitor compared with pembrolizumab alone; cited from earlier work

For `NS(=O)(=O)NCCNc1nonc1C(=NO)Nc1ccc(F)c(Br)c1` [epacadostat], the progression-free survival rate is given as “no significant improvement”.
